What was measured:
BT-474 [1] = assay: Antiproliferative activity against human BT-474 cells assessed as inhibition of cell growth incubated for 72 hrs by Celltiter-Glo assay; type: functional, cell-based; details: BT-474, 72 h
BT-474 [2] = assay: Antitumor activity against human BT-474 cells xenografted in BALB/c nude mouse assessed as tumor growth inhibition at 20 mg/kg/day, po administered once daily for 21 days relative to control; type: functional; details: BT-474, 504 h, time 21 day, read-out: TGI
SK-BR-3 = assay: Antiproliferative activity against human SK-BR-3 cells overexpressing wild type HER2 assessed as cell growth inhibition incubated for 72 hrs by Celltiter-Glo assay; type: functional, cell-based; details: SK-BR-3, 72 h
BaF3 = assay: Antitumor activity against mouse BaF3 cells harbouring HER2 A775_G776insYVMA mutant xenografted in BALB/c nude mouse assessed as tumor growth inhibition at 20 mg/kg, po qd measured for 13 days relative to control; type: functional; details: BaF3, 312 h, time 13 day, read-out: TGI
ES-2 = assay: Antiproliferative activity against human ES2 cells assessed as cell growth inhibition incubated for 72 hrs by Celltiter-Glo assay; type: functional, cell-based; details: ES-2, 72 h
NUGC-4 = assay: Antiproliferative activity against human NUGC-4 cells assessed as cell growth inhibition incubated for 72 hrs by Celltiter-Glo assay; type: functional, cell-based; details: NUGC-4, 72 h
MFE-280 = assay: Antiproliferative activity against human MFE-280 cells assessed as cell growth inhibition incubated for 72 hrs by Celltiter-Glo assay; type: functional, cell-based; details: MFE-280, 72 h
[3] = Antiproliferative activity against human KM12-Luc cells assessed as cell growth inhibition incubated for 72 hrs by Celltiter-Glo assay; type: functional, cell-based
NCI-N87 [4] = assay: Antitumor activity against human NCI-N87 cells xenografted in BALB/c nude mouse assessed as tumor growth inhibition at 20 mg/kg/day, po administered once daily for 21 days relative to control; type: functional; details: NCI-N87, 504 h, time 21 day, read-out: TGI
MDA-MB-468 = assay: Antiproliferative activity against human MDA-MB-468 cells overexpressing wild type EGFR assessed as cell growth inhibition incubated for 72 hrs by Celltiter-Glo assay; type: functional, cell-based; details: MDA-MB-468, 72 h
NCI-H441 = assay: Antiproliferative activity against human NCI-H441 cells assessed as cell growth inhibition incubated for 72 hrs by Celltiter-Glo assay; type: functional, cell-based; details: NCI-H441, 72 h
COLO-678 = assay: Antiproliferative activity against human COLO-678 cells assessed as cell growth inhibition incubated for 72 hrs by Celltiter-Glo assay; type: functional, cell-based; details: COLO-678, 72 h
NCI-N87 [5] = assay: Antiproliferative activity against human NCI-N87 cells assessed as inhibition of cell growth incubated for 72 hrs by Celltiter-Glo assay; type: functional, cell-based; details: NCI-N87, 72 h
[6] = target: Epidermal growth factor receptor (Homo sapiens, UniProt P00533); assay: Inhibition of wild type human N-terminal GST tagged EGFR (669 to 1210 residues) expressed in Sf21 insect cells incubated for 30 mins in presence of ATP by HTRF analysis
[7] = target: Receptor tyrosine-protein kinase erbB-2 (Homo sapiens, UniProt P04626); assay: Inhibition of wild type human GST-tagged HER2 (676 to end residues) expressed in baculovirus infected Sf9 cells incubated for 30 mins in presence of ATP by HTRF analysis
[8] = Metabolic stability in human liver microsomes assessed as intrinsic clearance at 1 uM preincubated for 5 mins followed by NADPH addition by LC-MS/MS analysis; type: ADME, Microsome; details: read-out: CLH
[9] = Metabolic stability in human liver microsomes assessed as half life at 1 uM preincubated for 5 mins followed by NADPH addition by LC-MS/MS analysis; type: ADME, Microsome
[10] = AUC (0 to t) in ICR mouse at 10 mg/kg, po measured upto 1440 mins by LC/MS/MS analysis; type: ADME, organism-based; parameters: time < 1440 min, dose 10 mg/kg, route po; details: in vivo
[11] = Clearance in Sprague-Dawley rat at 3 mg/kg, iv measured upto 1440 mins by LC/MS/MS analysis; type: ADME, organism-based; details: in vivo
[12] = AUC (0 to t) in Sprague-Dawley rat at 10 mg/kg, po measured upto 1440 mins by LC/MS/MS analysis; type: ADME, organism-based; parameters: dose 10 mg/kg, time < 1440 min, route po; details: in vivo
[13] = Volume of distribution at steady state in ICR mouse at 3 mg/kg, iv measured upto 1440 mins by LC/MS/MS analysis; type: ADME, organism-based; details: in vivo, read-out: Vdss
[14] = Half life in Sprague-Dawley rat at 3 mg/kg, iv measured upto 1440 mins by LC/MS/MS analysis; type: ADME, organism-based; details: in vivo
[15] = Oral bioavailability in Sprague-Dawley rat at 10 mg/kg measured upto 1440 mins by LC/MS/MS analysis; type: ADME, organism-based; details: in vivo
[16] = Half life in Sprague-Dawley rat at 10 mg/kg, po measured upto 1440 mins by LC/MS/MS analysis; type: ADME, organism-based; details: in vivo
[17] = Cmax in ICR mouse at 10 mg/kg, po measured upto 1440 mins by LC/MS/MS analysis; type: ADME, organism-based; parameters: dose 10 mg/kg, time < 1440 min, route po; details: in vivo
[18] = Half life in ICR mouse at 3 mg/kg, iv measured upto 1440 mins by LC/MS/MS analysis; type: ADME, organism-based; details: in vivo
[19] = Tmax in ICR mouse at 10 mg/kg, po measured upto 1440 mins by LC/MS/MS analysis; type: ADME, organism-based; details: in vivo
[20] = Volume of distribution at steady state in Sprague-Dawley rat at 3 mg/kg, iv measured upto 1440 mins by LC/MS/MS analysis; type: ADME, organism-based; details: in vivo, read-out: Vdss
[21] = Oral bioavailability in ICR mouse at 10 mg/kg measured upto 1440 mins by LC/MS/MS analysis; type: ADME, organism-based; details: in vivo
[22] = Clearance in ICR mouse at 3 mg/kg, iv measured upto 1440 mins by LC/MS/MS analysis; type: ADME, organism-based; details: in vivo
[23] = Tmax in Sprague-Dawley rat at 10 mg/kg, po measured upto 1440 mins by LC/MS/MS analysis; type: ADME, organism-based; details: in vivo
[24] = Half life in ICR mouse at 10 mg/kg, po measured upto 1440 mins by LC/MS/MS analysis; type: ADME, organism-based; details: in vivo
[25] = Cmax in Sprague-Dawley rat at 10 mg/kg, po measured upto 1440 mins by LC/MS/MS analysis; type: ADME, organism-based; parameters: time < 1440 min, dose 10 mg/kg, route po; details: in vivo

Receptor tyrosine-protein kinase erbB-2, sequence (P04626 whole entry): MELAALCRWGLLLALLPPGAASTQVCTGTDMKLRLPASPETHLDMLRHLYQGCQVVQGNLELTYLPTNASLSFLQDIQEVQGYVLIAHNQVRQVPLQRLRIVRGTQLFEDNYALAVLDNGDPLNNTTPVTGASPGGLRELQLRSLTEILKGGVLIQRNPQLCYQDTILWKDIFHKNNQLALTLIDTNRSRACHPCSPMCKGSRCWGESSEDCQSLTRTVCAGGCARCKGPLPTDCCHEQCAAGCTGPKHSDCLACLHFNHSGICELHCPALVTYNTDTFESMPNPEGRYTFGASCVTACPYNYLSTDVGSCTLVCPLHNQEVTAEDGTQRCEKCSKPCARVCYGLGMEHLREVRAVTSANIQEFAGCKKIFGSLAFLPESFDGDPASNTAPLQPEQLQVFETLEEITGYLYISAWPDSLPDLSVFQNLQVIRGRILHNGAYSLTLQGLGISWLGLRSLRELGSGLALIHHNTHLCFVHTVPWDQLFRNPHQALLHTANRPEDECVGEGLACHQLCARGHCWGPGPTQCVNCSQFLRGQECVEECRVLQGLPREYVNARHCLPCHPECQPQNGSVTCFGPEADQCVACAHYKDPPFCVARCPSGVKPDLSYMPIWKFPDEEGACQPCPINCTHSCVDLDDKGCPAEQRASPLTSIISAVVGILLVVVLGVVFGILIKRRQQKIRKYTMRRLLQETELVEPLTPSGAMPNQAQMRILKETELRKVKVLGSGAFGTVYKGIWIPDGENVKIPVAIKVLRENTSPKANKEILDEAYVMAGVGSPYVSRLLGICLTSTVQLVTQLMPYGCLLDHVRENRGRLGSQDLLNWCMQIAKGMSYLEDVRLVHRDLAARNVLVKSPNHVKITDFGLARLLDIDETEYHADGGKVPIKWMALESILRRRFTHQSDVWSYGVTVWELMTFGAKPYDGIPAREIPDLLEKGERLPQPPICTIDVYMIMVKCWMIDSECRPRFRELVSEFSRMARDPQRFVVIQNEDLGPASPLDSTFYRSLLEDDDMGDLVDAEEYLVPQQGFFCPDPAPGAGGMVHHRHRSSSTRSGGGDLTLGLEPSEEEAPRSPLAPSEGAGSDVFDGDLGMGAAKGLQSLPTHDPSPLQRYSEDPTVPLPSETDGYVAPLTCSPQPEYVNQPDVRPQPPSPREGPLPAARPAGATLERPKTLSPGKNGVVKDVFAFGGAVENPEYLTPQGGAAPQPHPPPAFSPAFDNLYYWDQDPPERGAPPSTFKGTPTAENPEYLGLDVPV
Epidermal growth factor receptor, sequence (P00533 whole entry, the tested form may be a part): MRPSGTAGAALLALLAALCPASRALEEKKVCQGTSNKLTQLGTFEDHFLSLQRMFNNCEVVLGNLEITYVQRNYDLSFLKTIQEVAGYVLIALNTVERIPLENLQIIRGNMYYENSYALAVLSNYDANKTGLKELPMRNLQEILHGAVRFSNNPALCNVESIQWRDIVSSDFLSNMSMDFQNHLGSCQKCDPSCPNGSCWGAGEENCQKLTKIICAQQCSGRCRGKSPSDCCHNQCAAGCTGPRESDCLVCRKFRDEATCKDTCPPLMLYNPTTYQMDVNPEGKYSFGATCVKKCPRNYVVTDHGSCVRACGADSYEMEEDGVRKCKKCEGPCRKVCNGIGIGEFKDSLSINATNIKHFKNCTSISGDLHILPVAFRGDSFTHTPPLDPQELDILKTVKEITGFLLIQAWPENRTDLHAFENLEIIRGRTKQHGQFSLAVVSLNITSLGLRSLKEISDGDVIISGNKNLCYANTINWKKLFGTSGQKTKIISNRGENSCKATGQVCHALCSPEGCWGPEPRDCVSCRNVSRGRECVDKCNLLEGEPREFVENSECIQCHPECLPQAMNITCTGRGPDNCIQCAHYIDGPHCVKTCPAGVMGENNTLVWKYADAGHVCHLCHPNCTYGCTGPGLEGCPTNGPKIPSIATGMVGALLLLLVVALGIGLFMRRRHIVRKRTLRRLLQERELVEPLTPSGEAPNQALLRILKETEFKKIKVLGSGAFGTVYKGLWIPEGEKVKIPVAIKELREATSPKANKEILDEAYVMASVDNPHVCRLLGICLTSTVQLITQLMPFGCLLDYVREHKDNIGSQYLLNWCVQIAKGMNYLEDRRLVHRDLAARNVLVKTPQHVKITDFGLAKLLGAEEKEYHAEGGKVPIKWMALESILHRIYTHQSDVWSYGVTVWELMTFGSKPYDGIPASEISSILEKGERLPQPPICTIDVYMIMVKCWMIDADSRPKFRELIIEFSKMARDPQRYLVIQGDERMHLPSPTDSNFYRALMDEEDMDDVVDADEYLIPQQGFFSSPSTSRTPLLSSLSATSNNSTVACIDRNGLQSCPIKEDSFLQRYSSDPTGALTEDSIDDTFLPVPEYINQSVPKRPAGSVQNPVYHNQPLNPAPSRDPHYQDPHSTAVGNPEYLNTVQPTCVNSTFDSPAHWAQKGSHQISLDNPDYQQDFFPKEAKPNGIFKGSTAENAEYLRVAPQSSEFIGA

Row | IC50 (BT-474 [1]) | IC50 [6] | IC50 [7] | microsomal CLint at 1 µM [8] | half-life at 1 µM [9] | Compound | IC50 (NCI-N87 [5]) | other results
1 | 7.44 nM | 3.13 nM | 10.8 nM | – | – | Cc1cc(Nc2c(C#N)cnc3ccc(NC(=O)/C=C/[C@H]4CCCN4C)cc23)ccc1Oc1cc2nncn2cn1 | 6.7 nM | –
2 | 3.88 nM | 9.6 nM | 4.05 nM | 40 µL/min/mg | 0.578 h | C=C(F)C(=O)Nc1cc2c(Nc3ccc(Oc4cc5nncn5cn4)c(C)c3)ncnc2cc1OCC | 6.56 nM | –
3 | 2.65 nM | 32.1 nM | 3.38 nM | 16.9 µL/min/mg | 1.37 h | CCOc1cc2ncnc(Nc3ccc(Oc4cc5nncn5cn4)c(C)c3)c2cc1NC(=O)/C(F)=C/[C@@H]1CCCN1C | 1.55 nM | –
4 | 20.8 nM | 11.8 nM | 16 nM | – | – | Cc1cc(Nc2ncnc3cc(O)c(NC(=O)/C=C/[C@H]4CCCN4C)cc23)ccc1Oc1cnn2cnnc2c1 | 28.3 nM | –
5 | 3.36 nM | 86.3 nM | 7.3 nM | 24.2 µL/min/mg | 0.954 h | CCOc1cc2ncnc(Nc3ccc(Oc4cc5nncn5cn4)c(C)c3)c2cc1NC(=O)/C(F)=C\[C@H]1CCCN1C | – | –

Second part, the compound before the results:

Row | Compound | IC50 (BT-474 [1]) | IC50 [6] | IC50 [7] | microsomal CLint at 1 µM [8] | half-life at 1 µM [9] | IC50 (NCI-N87 [5]) | other results
6 | CCOc1cc2ncc(C#N)c(Nc3ccc(OCc4ccccn4)c(Cl)c3)c2cc1NC(=O)/C=C/CN(C)C [NERATINIB] | 2.06 nM | – | – | – | – | 0.64 nM | inhibition in vivo at 20 mg/kg/day (BT-474 [2]): 119%; IC50 (SK-BR-3): 10.3 nM; inhibition in vivo at 20 mg/kg (BaF3): 56%; IC50 (ES-2): 788 nM; IC50 (NUGC-4): 38.1 nM; IC50 (MFE-280): 1290 nM; IC50 [3]: 1730 nM; inhibition in vivo at 20 mg/kg/day (NCI-N87 [4]): 112%; IC50 (MDA-MB-468): 406 nM; IC50 (NCI-H441): 1280 nM; IC50 (COLO-678): 694 nM
7 | C=CC(=O)Nc1cc2c(Nc3ccc(Oc4cc5nncn5cn4)c(C)c3)ncnc2cc1OCC | 4.69 nM | 1.47 nM | 1.93 nM | – | – | 51.9 nM | –
8 | Cc1cc(Nc2ncnc3cc(O)c(NC(=O)/C=C/[C@H]4CCCN4C)cc23)ccc1Oc1cc2nccn2cn1 | 5.59 nM | 1.11 nM | 1.06 nM | – | – | 41.7 nM | –
9 | Cc1cc(Nc2ncnc3cc(O)c(NC(=O)/C=C/[C@H]4CCCN4C)cc23)ccc1Oc1ccn2cnnc2c1 | 26.8 nM | 22.7 nM | 6.31 nM | – | – | 32.9 nM | –
10 | Cc1cc(Nc2ncnc3cc(O)c(NC(=O)/C=C/[C@H]4CCCN4C)cc23)ccc1Oc1ccn2ncnc2c1 | 2.4 nM | 2.8 nM | 1.43 nM | – | – | 2.65 nM | –
11 | CCOc1cc2ncnc(Nc3ccc(Oc4cc5nncn5cn4)c(C)c3)c2cc1NC(=O)/C=C/[C@H]1CCCN1C | 2.13 nM | 1.36 nM | 1.67 nM | 1.81 µL/min/mg | 12.9 h | 1.12 nM | AUC(0-t) at 24 h [10]: 1700 ng·h/mL; clearance [11]: 55.5 mL/min/kg; AUC(0-t) at 24 h [12]: 2170 ng·h/mL; Vd [13]: 2.79 L/kg; half-life [14]: 2.09 h; bioavailability [15]: 47.5%; half-life [16]: 4.32 h; Cmax [17]: 400 ng/mL; half-life [18]: 4.38 h; Tmax [19]: 1.67 h; Vd [20]: 10.6 L/kg; bioavailability [21]: 22.6%; clearance [22]: 22 mL/min/kg; Tmax [23]: 4 h; half-life [24]: 3.07 h; Cmax [25]: 280 ng/mL
